# Laboratory results from PMC3974779, “Pterostilbene-Isothiocyanate Conjugate Suppresses Growth of Prostate Cancer Cells Irrespective of Androgen Receptor Status” (PLoS ONE, 2014).
# Key:
# CHO cells = assay: MTT cytotoxicity assay; type: cell-based; settings: Cricetulus griseus, CHO noncancer cells, 24 h exposure, read-out: IC50 value (50% growth inhibition)
# Procedure: (§1) MTT assay was carried out as described previously. In brief, 5×10^3 cells in 200 μl of medium were seeded in 96-well plates (Griener, Germany). After 24 h, the cells were treated with various concentrations (0.1, 1, 10, 100 and 1000 μM) of RESV, PTER and conjugate. The control cells were treated with 0.1% DMSO (vehicle control). The cultured cells were assayed after 24 h by adding 20 μl of 5 mg/ml MTT followed by incubating at 37°C for 4 h. The MTT containing media was then aspirated and 200 μl DMSO (Himedia, Mumbai, India) was added to dissolve the formazone crystals. The optical density (OD) was measured at 570 nm using ELISA plate reader (Fluostar optima, BMG Labtech, Germany). The percentage inhibition was calculated as: [drawing 1]
# (§2) The dose response curve and IC50 values were obtained by nonlinear regression analysis [non-linear regression (sigmoidal dose response with variable slope)] using Graph Pad Prism, version 5.02 software (Graph Pad Software Inc., CA, USA).
# COS-1 cells = assay: MTT cytotoxicity assay; type: cell-based; settings: Chlorocebus aethiops, COS-1 noncancer cells, 24 h exposure, read-out: IC50 value (50% growth inhibition)
# Procedure: as §1, §2
# LNCaP cells = assay: MTT cytotoxicity assay; type: cell-based; settings: Homo sapiens, 24 h, 24 h exposure, mean ± SEM, read-out: IC50 value (50% growth inhibition)
# Procedure: as §1, §2
# PC-3 cells = assay: MTT cytotoxicity assay; type: cell-based; settings: Homo sapiens; PC-3, MTT, 24 h exposure, mean ± SEM; read-out: IC50 value (50% growth inhibition)
# Procedure: as §1, §2
# [1] = test system: caspase-3 activity in LNCaP cells; assay: Caspase colorimetric protease assay; type: cell-based, human; settings: 24 h
# Procedure: (§3) Caspase activity was determined using ApoTarget caspase colorimetric protease assay sampler kit (KHZ1001; Invitrogen) according to the manufacturer’s instructions. Briefly, both the PCa cells were treated with increasing doses of conjugate and RESV for 24 h. The cells were then collected, washed in PBS, and lysed in 50 μl lysis buffer on ice for 10 min. After centrifugation, the supernatant containing 150 μg proteins were incubated with 200 μM of caspase-3 (Ac-DEVD-pNA), caspase-8 (Ac-IETD-pNA) and caspase-9 (Ac-LEHD-pNA) substrates respectively in reaction buffer at 37°C for 1 h in 96 well flat bottom plate. Levels of released pNA were then measured at 405 nm wavelength with ELISA plate reader (Fluostar optima, BMG Labtech, Germany). The fold-increase in caspase-3, -8, and -9 activities were determined by direct comparison to the level of un-induced control. For the caspase inhibitor assay, cells were pretreated with a synthetic pan-caspase inhibitor (Z-VAD-FMK), caspase-8 inhibitor (Z-IETD-FMK) and caspase-9 inhibitor (Z-LEHD-FMK) for 1 h before the addition of conjugate and the cell death were analyzed by MTT assay as discussed earlier.
# [2] = test system: caspase-3 activity in PC-3 cells; assay: Caspase colorimetric protease assay; type: cell-based, human; settings: PC-3, 10, 20 and 40 μM, 24 h
# Procedure: as §3
# [3] = test system: caspase-8 activity in LNCaP cells; assay: Caspase colorimetric protease assay; type: cell-based, human; settings: 24 h
# Procedure: as §3
# [4] = test system: caspase-8 activity in PC-3 cells; assay: Caspase colorimetric protease assay; type: cell-based, human; settings: PC-3, 24 h, high dose
# Procedure: as §3
# [5] = test system: caspase-9 activity in LNCaP cells; assay: Caspase colorimetric protease assay; type: cell-based, human; settings: 24 h
# Procedure: as §3
# [6] = test system: caspase-9 activity in PC-3 cells; assay: Caspase colorimetric protease assay; type: cell-based, human; settings: PC-3, 10, 20 and 40 μM, 24 h
# Procedure: as §3
# [7] = test system: cleaved caspase-3 in PC-3 cells; assay: Akt/ERK siRNA silencing, cleaved caspase-3 immunoblot; type: cell-based, human
# Procedure: The siRNAs against human Akt and ERK and control siRNA were purchased commercially from Santa Cruz Biotechnology (USA). The LNCaP and PC-3 PCa cells were transfected with siRNAs (at a final concentration of 100 nM) using polyfect transfection reagent (Qiagen, CA, USA) according to manufacturer’s instructions. After 24 h of transfection, the cells were washed properly and replaced with fresh medium. The cells were then treated with 20 μM conjugate for 24 h, and finally protein lysates were prepared on completion of treatment. The levels of p-Akt, p-ERK and cleaved caspase-3 expressions were detected by Western blot analysis.
# Figure 5 Differential role of PI3K/Akt and MAPK/ERK pathways in conjugate induced apoptosis of prostate cancer cells. Effects of siRNA mediated silencing of Akt and ERK on conjugate-induced apoptosis of (A) PC-3 and (B) LNCaP cells. LNCaP and PC-3 PCa cells were transfected with siRNAs (at a final concentration of 100 nM) using polyfect transfection reagent. After 24 h of transfection the cells were treated with 20 μM conjugate and allowed to grow for another 24 h. The cell lysates were prepared and the level of p-Akt, p-ERK and cleaved caspase-3 proteins were detected by immunoblot analysis. The histogram on the right panel of each figure represents densitometric analyses of the image data and expressed as percent of control where the results are mean ± SEM of three independent experiments. *and # represents statistically significant difference with respect to control and 20 μM conjugate treated groups respectively at p<0.05.
# [8] = biological target: T1, AR nuclear localization in LNCaP cells (Homo sapiens, UniProt P10275); assay: GFP-AR nuclear localization; type: cell-based; settings: 10 and 20 μM with 10 nM DHT
# T1 construct: expressed in transfected cells; host or cells: LNCaP and PC-3
# T1 sequence (P10275 whole entry): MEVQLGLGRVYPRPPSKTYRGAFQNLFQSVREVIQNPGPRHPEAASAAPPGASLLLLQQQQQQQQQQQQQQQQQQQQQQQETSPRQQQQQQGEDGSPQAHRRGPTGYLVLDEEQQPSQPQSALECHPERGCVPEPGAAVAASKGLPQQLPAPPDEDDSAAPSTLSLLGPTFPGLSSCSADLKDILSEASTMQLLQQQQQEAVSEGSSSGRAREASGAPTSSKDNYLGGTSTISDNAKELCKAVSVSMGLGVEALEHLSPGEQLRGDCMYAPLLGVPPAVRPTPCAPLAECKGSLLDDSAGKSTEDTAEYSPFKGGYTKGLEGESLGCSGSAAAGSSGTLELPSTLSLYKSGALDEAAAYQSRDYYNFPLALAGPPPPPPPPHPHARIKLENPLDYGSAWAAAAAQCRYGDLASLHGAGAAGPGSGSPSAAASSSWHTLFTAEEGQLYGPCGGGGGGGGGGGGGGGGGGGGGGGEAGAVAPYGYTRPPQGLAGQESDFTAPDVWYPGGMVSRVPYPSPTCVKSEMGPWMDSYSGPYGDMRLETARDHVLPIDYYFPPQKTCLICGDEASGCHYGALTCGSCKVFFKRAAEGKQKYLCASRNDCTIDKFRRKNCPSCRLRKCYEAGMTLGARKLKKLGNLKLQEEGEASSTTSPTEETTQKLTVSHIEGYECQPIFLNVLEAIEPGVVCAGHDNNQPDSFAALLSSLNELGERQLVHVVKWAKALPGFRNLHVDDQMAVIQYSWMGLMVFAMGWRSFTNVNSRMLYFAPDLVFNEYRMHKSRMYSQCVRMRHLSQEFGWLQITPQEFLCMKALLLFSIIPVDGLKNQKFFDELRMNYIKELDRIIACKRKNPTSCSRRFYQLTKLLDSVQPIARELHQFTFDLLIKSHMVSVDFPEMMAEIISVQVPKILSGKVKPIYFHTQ
# Procedure: (§4) For localization studies, pEGFP-AR plasmid was transfected to LNCaP and PC-3 cells (300 ng/10^5 cells).
# [9] = biological target: T2, AR nuclear localization in PC-3 cells (Homo sapiens, UniProt P10275); assay: GFP-AR nuclear localization; type: cell-based; settings: PC-3, 10 and 20 μM with 10 nM DHT
# T2 construct: expressed in transfected cells; host or cells: LNCaP and PC-3
# T2 sequence (P10275 whole entry): as above
# Procedure: as §4
structure (smiles),measurement,setting,value
"COc1cc(/C=C/c2ccc(O)c(/C=N/NC(N)=S)c2)cc(OC)c1 [conjugate, Pterostilbene-isothiocyanate conjugate]",IC50,CHO cells,> 100 µM
same,IC50,COS-1 cells,> 100 µM
same,IC50,LNCaP cells,40 ± 1.12 µM
same,IC50,PC-3 cells,45 ± 1.5 µM
same,caspase-3 activity,[1],significant increase
same,caspase-3 enzyme activity,[2],dose-dependent augmentation
same,caspase-8 activity,[3],significant increase
same,caspase-8 activity,[4],no such induction was observed
same,caspase-9 activity,[5],significant increase
same,caspase-9 enzyme activity,[6],dose-dependent augmentation
same,increase in cleaved caspase-3 protein expression vs control,"[7]; PC-3, 20 μM conjugate alone, 24 h",3.7 folds
same,increase in cleaved caspase-3 protein expression vs control,"[7]; PC-3, 20 μM conjugate in presence of Akt siRNA",4.8 folds
same,increase in expression of caspase-3 vs control,"[7]; PC-3, 20 μM conjugate in presence of ERK siRNA",3.9 folds
same,DHT induced nuclear localization of AR,[8],significantly inhibited
same,DHT induced nuclear localization of AR,[9],significantly inhibited
